According to patent publication US10273263B2, “Pro-drug forming compounds” (priority 2013, dated 2019):
Read-outs that look alike come from different tables or passages of the source.

Assays:
[1] = biological target: human carbonic anhydrase II (hCA 2) (Homo sapiens, UniProt P00918); assay: Human Carbonic Anhydrase II inhibition; assay type: biochemical
[2] = oral biological activity: % uterine weight increase compared to vehicle; assay type: in vivo, rat; conditions: for change in vivo at 0.03 mg / change in vivo at 0.01 mg: Rattus norvegicus, oral; for change in vivo at 0.03 mg: 30.0 μg; for change in vivo at 0.01 mg: 10.0 μg
Protocol: Exemplary compounds were tested for: oral biological activity (Table 1); binding to human carbonic anhydrase II (hCA 2) (Table 2); and, for some compounds enzymatic saponification (Table 3).

| SMILES | IC50 ([1]; read-out: hCAII (IC50 nM)) | change in vivo at 0.03 mg [2] | change in vivo at 0.01 mg [2] | IC50 [1] | oral activity ([2]; oral dose, comparison in words) |
| --- | --- | --- | --- | --- | --- |
| C[C@]12CCC3c4ccc(O)cc4CCC3C1CC[C@@H]2OC(=O)c1cccc(S(N)(=O)=O)c1 (stereo partly drawn) [Compound 1A, (13S, 17S)-3-hydroxy-13-methyl-7,8,9,11,12,13,14,15,16,17-decahydro-6H-cyclopenta[a]phenanthren-17-yl 3-sulfamoylbenzoate, reference compound] | 258 nM | 212% | – | – | – |
| C[C@]12CCC3c4ccc(O)cc4CCC3C1CC[C@@H]2OC(=O)COC(=O)c1cccc(S(N)(=O)=O)c1 (stereo partly drawn) [Compound 2A, 2-((13S,17S)-3-hydroxy-13-methyl-7,8,9,11,12,13,14,15,16,17-decahydro-6H-cyclopenta[a]phenanthren-17-yloxy)-2-oxoethyl 3-sulfamoylbenzoate] | 3500 nM | – | – | – | – |
| C[C@]12CCC3c4ccc(O)cc4CCC3C1CC[C@@H]2OC(=O)COC(=O)c1ccc(S(N)(=O)=O)cc1 (stereo partly drawn) [Compound 3A, 2-((13S,17S)-3-hydroxy-13-methyl-7,8,9,11,12,13,14,15,16,17-decahydro-6H-cyclopenta[a]phenanthren-17-yloxy)-2-oxoethyl 4-sulfamoylbenzoate] | 250 nM | 197% | – | – | – |
| C[C@]12CCC3c4ccc(O)cc4CCC3C1CC[C@@H]2OC(=O)/C=C/C(=O)NCc1ccc(S(N)(=O)=O)cc1 (stereo partly shown) [Compound 4A] | 450 nM | 164% | – | – | – |
| C[C@]12CCC3c4ccc(O)cc4CCC3C1CC[C@@H]2OC(=O)CNC(=O)c1cccc(S(N)(=O)=O)c1 (stereo partly drawn) [Compound 5A, (13S,17S)-3-hydroxy-13-methyl-7,8,9,11,12,13,14,15,16,17-decahydro-6H-cyclopenta[a]phenanthren-17-yl 2-(3-sulfamoylbenzamido)-acetate] | 42 nM | 171% | – | – | – |
| C[C@]12CCC3c4ccc(O)cc4CCC3C1CC[C@@H]2OC(=O)CNC(=O)c1ccc(S(N)(=O)=O)cc1 (stereo partly drawn) [Compound 6A, (13S,17S)-3-hydroxy-13-methyl-7,8,9,11,12,13,14,15,16,17-decahydro-6H-cyclopenta[a]phenanthren-17-yl 2-(4-sulfamoylbenzamido)acetate] | 65 nM | – | 152% | – | – |
| C[C@]12CCC3c4ccc(O)cc4CCC3C1CC[C@@H]2OC(=O)[C@@H]1CCCN1C(=O)c1cccc(S(N)(=O)=O)c1 (stereo partly drawn) [Compound 7A, (2S)-((13S,17S)-3-hydroxy-13-methyl-7,8,9,11,12,13,14,15,16,17-decahydro-6H-cyclopenta[a]-phenanthren-17-yl) 1-(3-sulfamoylbenzoyl)pyrrolidine-2-carboxylate] | 300 nM | – | 108% | – | – |
| C[C@]12CCC3c4ccc(O)cc4CCC3C1CC[C@@H]2OC(=O)C(F)(F)S(N)(=O)=O (stereo partly drawn) [Compound 9A, (13S,17S)-3-hydroxy-13-methyl-7,8,9,11,12,13,14,15,16,17-decahydro-6H-cyclopenta[a]phenanthren-17-yl 2,2-difluoro-2-sulfamoylacetate] | 85 nM | – | 218% | – | – |
| C[C@]12CCC3c4ccc(O)cc4CCC3C1CC[C@@H]2OC(=O)CS(N)(=O)=O (stereo partly drawn) [Compound 10A, (13S,17S)-3-hydroxy-13-methyl-7,8,9,11,12,13,14,15,16,17-decahydro-6H-cyclopenta[a]phenanthren-17-yl 2-sulfamoylacetate] | 510 nM | – | 177% | – | – |
| C[C@H](NC(=O)c1cccc(S(N)(=O)=O)c1)C(=O)O[C@H]1CCC2C3CCc4cc(O)ccc4C3CC[C@@]21C (stereo partly drawn) [Compound 11A, (2S)-((13S,17S)-3-hydroxy-13-methyl-7,8,9,11,12,13,14,15,16,17-decahydro-6H-cyclopenta[a]-phenanthren-17-yl) 2-(3-sulfamoylbenzamido)propanoate] | 310 nM | – | 170% | – | – |
| C[C@H](NC(=O)c1ccc(S(N)(=O)=O)cc1)C(=O)O[C@H]1CCC2C3CCc4cc(O)ccc4C3CC[C@@]21C (stereo partly drawn) [Compound 12A, (2S)-((13S,17S)-3-hydroxy-13-methyl-7,8,9,11,12,13,14,15,16,17-decahydro-6H-cyclopenta[a]-phenanthren-17-yl) 2-(4-sulfamoylbenzamido)propanoate] | – | 271% | – | 250 nM | – |
| C[C@]12CCC3c4ccc(O)cc4CCC3C1CC[C@@H]2OC(=O)CN(Cc1cccc(S(N)(=O)=O)c1)Cc1cccc(S(N)(=O)=O)c1 (stereo partly drawn) [Compound 13A, (13S,17S)-3-hydroxy-13-methyl-7,8,9,11,12,13,14,15,16,17-decahydro-6H-cyclopenta[a]phenanthren-17-yl 2-(bis(3-sulfamoylbenzyl)amino)acetate] | 500 nM | 136% | – | – | – |
| C[C@]12CCC3c4ccc(O)cc4CCC3C1CC[C@@H]2OC(=O)CNCc1cccc(S(N)(=O)=O)c1 (stereo partly drawn) [Compound 14A, (13S,17S)-3-hydroxy-13-methyl-7,8,9,11,12,13,14,15,16,17-decahydro-6H-cyclopenta[a]phenanthren-17-yl 2-(3-sulfamoylbenzylamino)acetate] | 450 nM | 187% | – | – | – |
| C[C@]12CCC3c4ccc(O)cc4CCC3C1CC[C@@H]2OC(=O)COc1ccc(S(N)(=O)=O)cc1 (stereo partly drawn) [Compound 15A, (13S,17S)-3-hydroxy-13-methyl-7,8,9,11,12,13,14,15,16,17-decahydro-6H-cyclopenta[a]phenanthren-17-yl 2-(4-sulfamoylphenoxy)acetate] | 105 nM | 152% | – | – | – |
| C[C@]12CCC3c4ccc(O)cc4CCC3C1CC[C@@H]2OC(=O)C1(S(N)(=O)=O)CC1 (stereo partly drawn) [Compound 16A, (13S,17S)-3-hydroxy-13-methyl-7,8,9,11,12,13,14,15,16,17-decahydro-6H-cyclopenta[a]phenanthren-17-yl 1-sulfamoylcyclopropanecarboxylate] | > 10000 nM | 314% | – | – | comparable high oral activity |
| C[C@]12CCC3c4ccc(O)cc4CCC3C1CC[C@@H]2OC(=O)COCc1ccc(S(N)(=O)=O)cc1 (stereo partly drawn) [Compound 17A, (13S,17S)-3-hydroxy-13-methyl-7,8,9,11,12,13,14,15,16,17-decahydro-6H-cyclopenta[a]phenanthren-17-yl 2-(4-sulfamoylbenzyloxy)acetate] | 125 nM | 133% | – | – | – |
| C[C@@H](C(=O)O[C@H]1CCC2C3CCc4cc(O)ccc4C3CC[C@@]21C)N(C)C(=O)c1ccc(S(N)(=O)=O)cc1 (stereo partly drawn) [Compound 18A, [(13S,17S)-3-hydroxy-13-methyl-6,7,8,9,11,12,14,15,16,17-decahydrocyclopenta[a]phenanthren-17-yl](2S)-2-[methyl-(4-sulfamoylbenzoyl)amino]propanoate] | – | – | 209% | 203 nM | – |
| CC(C)[C@H](NC(=O)c1ccc(S(N)(=O)=O)cc1)C(=O)O[C@H]1CCC2C3CCc4cc(O)ccc4C3CC[C@@]21C (stereo partly drawn) [Compound 19A, [(13S,17S)-3-hydroxy-13-methyl-6,7,8,9,11,12,14,15,16,17-decahydrocyclopenta[a]phenanthren-17-yl] (2S)-3-methyl-2-[(4-sulfamoylbenzoyl)amino]butanoate] | 202 nM | – | 267% | – | – |
| CC(C)(NC(=O)c1ccc(S(N)(=O)=O)cc1)C(=O)O[C@H]1CCC2C3CCc4cc(O)ccc4C3CC[C@@]21C (stereo partly drawn) [Compound 20A, [(13S,17S)-3-hydroxy-13-methyl-6,7,8,9,11,12,14,15,16,17-decahydrocyclopenta[a]phenanthren-17-yl] 2-methyl-2-[(4-sulfamoylbenzoyl)amino]propanoate] | – | – | 97.1% | 232 nM | – |
| C[C@]12CCC3c4ccc(O)cc4CCC3C1CC[C@@H]2OC(=O)[C@H](Cc1ccccc1)NC(=O)c1ccc(S(N)(=O)=O)cc1 (stereo partly drawn) [Compound 21A, [(13S,17S)-3-hydroxy-13-methyl-6,7,8,9,11,12,14,15,16,17-decahydrocyclopenta[a]phenanthren-17-yl] (2S)-3-phenyl-2-[(4-sulfamoylbenzoyl)amino]propanoate] | 100 nM | – | 117% | – | – |
| C[C@]12CCC3c4ccc(O)cc4CCC3C1CC[C@@H]2OC(=O)[C@@H]1CCCN1c1ccc(S(N)(=O)=O)cc1 (stereo partly drawn) [Compound 22A, [(13S,17S)-3-hydroxy-13-methyl-6,7,8,9,11,12,14,15,16,17-decahydrocyclopenta[a]phenanthren-17-yl] 1-(4-sulfamoylphenyl)pyrrolidine-2-carboxylate] | 198 nM | – | 91.6% | – | – |
| C[C@]12CCC3c4ccc(O)cc4CCC3C1CC[C@@H]2OC(=O)[C@@H]1CCCN1Cc1ccc(S(N)(=O)=O)cc1 (stereo partly drawn) [Compound 23A, [(13S,17S)-3-hydroxy-13-methyl-6,7,8,9,11,12,14,15,16,17-decahydrocyclopenta[a]phenanthren-17-yl] 1-[(4-sulfamoylphenyl)methyl]pyrrolidine-2-carboxylate] | 129 nM | – | 272% | – | – |
| C[C@]12CC[C@@H]3c4ccc(O)cc4CC[C@H]3[C@@H]1CC[C@@H]2O [Compound E2, estradiol, reference compound] | – | – | 118% | – | – |
| C#C[C@]1(O)CC[C@H]2[C@@H]3CCc4cc(O)ccc4[C@H]3CC[C@@]21C [EE, ethinyl estradiol, reference compound] | – | – | 154% | – | – |
